Experimental data taken from ChEMBL document CHEMBL4414679, “Discovery of 4,6-pyrimidinediamine derivatives as novel dual EGFR/FGFR inhibitors aimed EGFR/FGFR1-positive NSCLC” (Eur J Med Chem, 2020).
Calls of active or inactive are those of the source. No cut-off for these calls is given here.

Tests used:
[1] = molecular target: T1, Epidermal growth factor receptor (Homo sapiens, UniProt P00533); assay: Inhibition of EGFR in human PC9 cells assessed as reduction in EGF-induced AKT phosphorylation upto 10 uM incubated for 1 hr by Western blot analysis; format: cell-based
[2] = tested on: Epidermal growth factor receptor (Homo sapiens), P00533 [L858R]; assay: Inhibition of recombinant human EGFR L858R mutant expressed in baculovirus at 10 uM using FAM-labelled peptide as substrate pre-incubated for 10 mins followed by substrate addition by mobility shift assay relative to control
[3] = molecular target: T1, Epidermal growth factor receptor; assay: Inhibition of N-terminal GST-tagged human EGFR (d746-750AA) expressed in baculovirus using FAM-labelled peptide as substrate pre-incubated for 10 mins followed by substrate addition by mobility shift assay
NCI-H1581 [4] = assay: Antiproliferative activity against human NCI-H1581 cells assessed as inhibition of cell growth at 10 uM incubated for 48 hrs by MTT assay relative to control; format: functional; details: NCI-H1581, 48 h
NCI-H520 = assay: Antiproliferative activity against human NCI-H520 cells incubated for 48 hrs by MTT assay; format: functional, cell-based; details: NCI-H520, 48 h
NCI-H1581 [5] = assay: Antiproliferative activity against human NCI-H1581 cells incubated for 48 hrs by MTT assay; format: functional, cell-based; details: NCI-H1581, 48 h
Homo sapiens = species: Homo sapiens; assay: Induction of cell cycle arrest in gefitinib-insensitive human HCC827GR cells assessed as accumulation of cells at G1 measured after 24 hrs by flow cytometry; format: functional
[6] = molecular target: T2, Fibroblast growth factor receptor 1 (Homo sapiens, UniProt P11362); assay: Inhibition of N-terminal GST-tagged human FGFR1 expressed in baculovirus at 10 uM using FAM-labelled peptide as substrate pre-incubated for 10 mins followed by substrate addition by mobility shift assay relative to control
[7] = Cmax in Sprague-Dawley rat at 30 mg/kg, po measured upto 24 hrs by UPLC-MS/MS; format: ADME, organism-based; parameters: dose 30 mg/kg, route oral; details: in vivo
[8] = AUC (0 to 24 hrs) in Sprague-Dawley rat at 30 mg/kg, po measured upto 24 hrs by UPLC-MS/MS; format: ADME, organism-based; parameters: time < 24 hr, dose 30 mg/kg, route oral; details: in vivo
[9] = Antiproliferative activity against gefitinib-resistant human HCC827GR cells incubated for 48 hrs by MTT assay; format: functional
NCI-H226 [10] = assay: Induction of apoptosis in human NCI-H226 cells assessed as viable cells at 10 uM measured after 24 hrs by Annexin-V/propidium iodide staining-based flow cytometric analysis (reference value: 93.4%); format: functional; details: NCI-H226, 24 h, read-out: Activity
NCI-H226 [11] = assay: Induction of apoptosis in human NCI-H226 cells assessed as late apoptotic cells at 10 uM measured after 24 hrs by Annexin-V/propidium iodide staining-based flow cytometric analysis (reference value: 2.8%); format: functional
[12] = Induction of apoptosis in gefitinib-insensitive human HCC827GR cells assessed as early apoptotic cells at 1 uM measured after 24 hrs by Annexin-V/propidium iodide staining-based flow cytometric analysis (reference value: 1.9%); format: functional
[13] = Induction of apoptosis in gefitinib-insensitive human HCC827GR cells assessed as late apoptotic cells at 5 uM measured after 24 hrs by Annexin-V/propidium iodide staining-based flow cytometric analysis (reference value: 1.5%); format: functional
[14] = Induction of apoptosis in gefitinib-insensitive human HCC827GR cells assessed as early apoptotic cells at 5 uM measured after 24 hrs by Annexin-V/propidium iodide staining-based flow cytometric analysis (reference value: 1.9%); format: functional
[15] = Induction of apoptosis in gefitinib-insensitive human HCC827GR cells assessed as necrotic cells at 2.5 uM measured after 24 hrs by Annexin-V/propidium iodide staining-based flow cytometric analysis (reference value: 5.8%); format: functional
[16] = molecular target: T2, Fibroblast growth factor receptor 1; assay: Inhibition of FGFR1 in gefitinib-insensitive human HCC827GR cells assessed as reduction in FGF-induced FGFR1 phosphorylation upto 10 uM measured after 2 hrs by western blot analysis
[17] = Toxicity in BALB/c nude mouse xenografted with human HCC827GR cells assessed as body weight at 15 mg/kg, ip dosed measured every 2 days upto 24 days; format: organism-based; details: in vivo
Mus musculus = assay: Down regulation of EGFR phosphorylation in BALB/c nude mouse xenografted with human HCC827GR cells at 15 mg/kg, ip dosed by western blot analysis; format: functional, organism-based
[18] = Induction of apoptosis in gefitinib-insensitive human HCC827GR cells assessed as necrotic cells at 10 uM measured after 24 hrs by Annexin-V/propidium iodide staining-based flow cytometric analysis (reference value: 5.8%); format: functional
[19] = molecular target: Fibroblast growth factor receptor 3 (Homo sapiens) (UniProt P22607); assay: Inhibition of N-terminal GST tagged human FGFR3 cytoplasmic domain (436 to 806 AA) expressed in baculovirus at 10 uM using FAM-labelled peptide as substrate pre-incubated for 10 mins followed by substrate addition by mobility shift assay relative to control
[20] = molecular target: RAC-alpha serine/threonine-protein kinase (Homo sapiens) (UniProt P31749); assay: Inhibition of N-terminal GST tagged human AKT1 catalytic domain (104 to 480 AA) expressed in baculovirus at 10 uM using FAM-labelled peptide as substrate pre-incubated for 10 mins followed by substrate addition by mobility shift assay relative to control
[21] = molecular target: Mitogen-activated protein kinase 3 (Homo sapiens) (UniProt P27361); assay: Inhibition of full length N-terminal GST-tagged human ERK1 (1 to 379 AA) expressed in Escherichia coli at 10 uM using FAM-labelled peptide as substrate pre-incubated for 10 mins followed by substrate addition by mobility shift assay relative to control
[22] = molecular target: Platelet-derived growth factor receptor alpha (Homo sapiens) (UniProt P16234); assay: Inhibition of N-terminal GST tagged human PDGFRalpha cytoplasmic domain (550 to 1089 AA) expressed in baculovirus at 10 uM using FAM-labelled peptide as substrate pre-incubated for 10 mins followed by substrate addition by mobility shift assay relative to control
[23] = molecular target: Vascular endothelial growth factor receptor 1 (Homo sapiens) (UniProt P17948); assay: Inhibition of N-terminal GST tagged human FLT1 cytoplasmic domain (781 to 1338 AA) expressed in baculovirus at 10 uM using FAM-labelled peptide as substrate pre-incubated for 10 mins followed by substrate addition by mobility shift assay relative to control
[24] = molecular target: CDK6/cyclin D3 (Homo sapiens) (UniProt P30281+Q00534); assay: Inhibition of N-terminal GST tagged truncated human CDK6 (1 to 326 AA) coexpressed with CyclinD3 (1 to 292 AA) in baculovirus at 10 uM using FAM-labelled peptide as substrate pre-incubated for 10 mins followed by substrate addition by mobility shift assay relative to control; format: protein-complex assay
[25] = molecular target: Hepatocyte growth factor receptor (Homo sapiens) (UniProt P08581); assay: Inhibition of N-terminal GST-tagged human MET cytoplasmic domain (956 to 1360 AA) expressed in baculovirus at 10 uM using FAM-labelled peptide as substrate pre-incubated for 10 mins followed by substrate addition by mobility shift assay relative to control
[26] = molecular target: Proto-oncogene tyrosine-protein kinase Src (Homo sapiens) (UniProt P12931); assay: Inhibition of full length N-terminal GST-tagged human SRC (1 to 536 AA) expressed in baculovirus at 10 uM using FAM-labelled peptide as substrate pre-incubated for 10 mins followed by substrate addition by mobility shift assay relative to control

T2 sequence (P11362 22-822 limits assumed): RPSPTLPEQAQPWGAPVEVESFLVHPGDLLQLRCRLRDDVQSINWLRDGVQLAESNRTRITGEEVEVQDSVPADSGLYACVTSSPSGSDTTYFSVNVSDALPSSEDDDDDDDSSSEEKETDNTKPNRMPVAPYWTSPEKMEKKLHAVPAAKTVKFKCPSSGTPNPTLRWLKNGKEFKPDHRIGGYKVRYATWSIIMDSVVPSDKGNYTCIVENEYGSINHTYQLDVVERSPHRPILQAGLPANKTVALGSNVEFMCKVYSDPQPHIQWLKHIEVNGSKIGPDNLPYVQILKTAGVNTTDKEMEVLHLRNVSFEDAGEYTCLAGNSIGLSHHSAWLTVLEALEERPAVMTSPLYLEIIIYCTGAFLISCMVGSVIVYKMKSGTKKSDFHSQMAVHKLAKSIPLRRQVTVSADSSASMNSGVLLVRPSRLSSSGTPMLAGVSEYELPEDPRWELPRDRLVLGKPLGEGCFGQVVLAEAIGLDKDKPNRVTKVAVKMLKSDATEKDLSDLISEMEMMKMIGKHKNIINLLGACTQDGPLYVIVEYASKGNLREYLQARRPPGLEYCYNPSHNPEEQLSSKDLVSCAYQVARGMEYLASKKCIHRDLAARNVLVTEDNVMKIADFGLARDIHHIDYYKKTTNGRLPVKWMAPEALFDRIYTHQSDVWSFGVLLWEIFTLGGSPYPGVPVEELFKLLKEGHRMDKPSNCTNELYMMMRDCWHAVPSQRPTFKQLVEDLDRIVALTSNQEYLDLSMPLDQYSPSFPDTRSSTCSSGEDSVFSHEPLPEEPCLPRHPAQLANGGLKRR
T1 sequence (P00533 whole entry): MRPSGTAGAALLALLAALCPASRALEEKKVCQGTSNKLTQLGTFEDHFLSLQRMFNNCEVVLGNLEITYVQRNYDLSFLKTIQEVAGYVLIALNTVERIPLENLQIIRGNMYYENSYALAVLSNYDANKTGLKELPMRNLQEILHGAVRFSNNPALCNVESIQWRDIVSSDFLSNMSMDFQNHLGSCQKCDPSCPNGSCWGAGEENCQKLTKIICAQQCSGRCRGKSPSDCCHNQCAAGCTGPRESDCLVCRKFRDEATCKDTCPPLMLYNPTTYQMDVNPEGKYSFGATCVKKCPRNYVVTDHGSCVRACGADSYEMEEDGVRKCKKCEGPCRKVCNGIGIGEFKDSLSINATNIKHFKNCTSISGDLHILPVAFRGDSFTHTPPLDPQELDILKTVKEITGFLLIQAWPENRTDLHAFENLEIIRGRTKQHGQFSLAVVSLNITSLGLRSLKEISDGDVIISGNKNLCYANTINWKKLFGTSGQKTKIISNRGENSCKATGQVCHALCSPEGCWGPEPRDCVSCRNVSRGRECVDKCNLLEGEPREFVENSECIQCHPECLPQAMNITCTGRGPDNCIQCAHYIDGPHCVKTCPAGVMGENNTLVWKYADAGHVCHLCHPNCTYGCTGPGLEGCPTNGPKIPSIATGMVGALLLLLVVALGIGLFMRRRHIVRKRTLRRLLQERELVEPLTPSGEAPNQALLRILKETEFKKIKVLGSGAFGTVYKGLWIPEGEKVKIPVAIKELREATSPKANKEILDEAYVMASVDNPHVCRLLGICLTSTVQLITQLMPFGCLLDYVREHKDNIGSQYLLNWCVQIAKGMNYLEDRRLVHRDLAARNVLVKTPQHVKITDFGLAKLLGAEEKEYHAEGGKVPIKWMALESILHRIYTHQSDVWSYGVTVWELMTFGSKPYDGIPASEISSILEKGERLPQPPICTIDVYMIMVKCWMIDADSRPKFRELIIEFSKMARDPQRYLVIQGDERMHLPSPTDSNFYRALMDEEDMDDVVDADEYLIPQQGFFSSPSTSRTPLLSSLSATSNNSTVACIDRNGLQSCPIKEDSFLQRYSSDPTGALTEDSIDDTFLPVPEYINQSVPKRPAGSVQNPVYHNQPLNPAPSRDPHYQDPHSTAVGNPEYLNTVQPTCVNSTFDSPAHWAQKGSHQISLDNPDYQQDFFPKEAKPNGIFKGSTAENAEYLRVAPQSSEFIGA
Chain of Mitogen-activated protein kinase 3 (Homo sapiens) (P27361 whole entry, the tested form may be a part): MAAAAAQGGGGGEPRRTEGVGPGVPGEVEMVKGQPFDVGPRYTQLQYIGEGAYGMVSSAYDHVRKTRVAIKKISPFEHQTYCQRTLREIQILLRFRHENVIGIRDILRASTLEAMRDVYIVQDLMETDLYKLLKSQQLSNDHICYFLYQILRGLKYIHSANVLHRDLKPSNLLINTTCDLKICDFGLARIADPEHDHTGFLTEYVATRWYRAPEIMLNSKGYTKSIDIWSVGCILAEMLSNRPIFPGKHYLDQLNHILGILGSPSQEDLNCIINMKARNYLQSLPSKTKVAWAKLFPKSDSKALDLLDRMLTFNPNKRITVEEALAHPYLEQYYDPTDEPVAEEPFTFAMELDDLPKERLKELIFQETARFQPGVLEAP
Chain of Hepatocyte growth factor receptor (Homo sapiens) (P08581 whole entry, the tested form may be a part): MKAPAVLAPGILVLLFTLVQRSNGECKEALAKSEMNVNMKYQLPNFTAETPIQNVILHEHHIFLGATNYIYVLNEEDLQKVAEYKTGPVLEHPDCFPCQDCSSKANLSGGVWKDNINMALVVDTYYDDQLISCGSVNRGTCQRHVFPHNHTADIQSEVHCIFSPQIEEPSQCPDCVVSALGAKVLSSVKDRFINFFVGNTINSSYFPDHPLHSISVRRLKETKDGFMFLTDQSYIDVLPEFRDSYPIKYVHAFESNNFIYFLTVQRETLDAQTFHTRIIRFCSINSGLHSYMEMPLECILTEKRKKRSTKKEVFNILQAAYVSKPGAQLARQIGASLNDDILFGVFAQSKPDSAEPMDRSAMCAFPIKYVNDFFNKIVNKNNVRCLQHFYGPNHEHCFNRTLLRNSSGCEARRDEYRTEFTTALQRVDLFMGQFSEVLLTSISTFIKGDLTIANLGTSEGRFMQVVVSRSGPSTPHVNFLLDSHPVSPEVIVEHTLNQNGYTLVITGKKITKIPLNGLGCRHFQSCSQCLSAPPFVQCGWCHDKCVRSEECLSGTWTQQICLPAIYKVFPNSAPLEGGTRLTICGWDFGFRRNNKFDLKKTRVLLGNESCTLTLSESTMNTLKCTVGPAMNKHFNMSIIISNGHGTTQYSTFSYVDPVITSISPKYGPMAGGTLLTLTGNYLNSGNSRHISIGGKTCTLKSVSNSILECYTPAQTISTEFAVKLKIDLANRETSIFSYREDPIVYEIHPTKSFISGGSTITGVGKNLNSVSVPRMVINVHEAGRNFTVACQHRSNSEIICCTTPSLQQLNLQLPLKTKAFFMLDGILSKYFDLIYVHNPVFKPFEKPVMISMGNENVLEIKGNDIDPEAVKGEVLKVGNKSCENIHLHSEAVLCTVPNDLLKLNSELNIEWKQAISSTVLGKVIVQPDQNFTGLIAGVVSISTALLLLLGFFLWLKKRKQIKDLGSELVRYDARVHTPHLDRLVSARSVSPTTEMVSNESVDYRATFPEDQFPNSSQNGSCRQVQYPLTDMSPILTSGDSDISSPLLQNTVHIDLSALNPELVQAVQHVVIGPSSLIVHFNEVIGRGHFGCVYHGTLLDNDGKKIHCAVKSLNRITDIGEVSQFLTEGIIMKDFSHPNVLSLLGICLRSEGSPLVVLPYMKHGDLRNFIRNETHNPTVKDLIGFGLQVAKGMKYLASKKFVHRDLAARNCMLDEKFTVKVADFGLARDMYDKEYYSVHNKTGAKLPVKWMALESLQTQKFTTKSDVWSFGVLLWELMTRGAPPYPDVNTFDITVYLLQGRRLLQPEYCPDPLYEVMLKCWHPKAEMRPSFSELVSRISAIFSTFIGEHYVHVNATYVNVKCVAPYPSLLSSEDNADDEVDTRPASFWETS
Chain of Vascular endothelial growth factor receptor 1 (Homo sapiens) (P17948 whole entry, the tested form may be a part): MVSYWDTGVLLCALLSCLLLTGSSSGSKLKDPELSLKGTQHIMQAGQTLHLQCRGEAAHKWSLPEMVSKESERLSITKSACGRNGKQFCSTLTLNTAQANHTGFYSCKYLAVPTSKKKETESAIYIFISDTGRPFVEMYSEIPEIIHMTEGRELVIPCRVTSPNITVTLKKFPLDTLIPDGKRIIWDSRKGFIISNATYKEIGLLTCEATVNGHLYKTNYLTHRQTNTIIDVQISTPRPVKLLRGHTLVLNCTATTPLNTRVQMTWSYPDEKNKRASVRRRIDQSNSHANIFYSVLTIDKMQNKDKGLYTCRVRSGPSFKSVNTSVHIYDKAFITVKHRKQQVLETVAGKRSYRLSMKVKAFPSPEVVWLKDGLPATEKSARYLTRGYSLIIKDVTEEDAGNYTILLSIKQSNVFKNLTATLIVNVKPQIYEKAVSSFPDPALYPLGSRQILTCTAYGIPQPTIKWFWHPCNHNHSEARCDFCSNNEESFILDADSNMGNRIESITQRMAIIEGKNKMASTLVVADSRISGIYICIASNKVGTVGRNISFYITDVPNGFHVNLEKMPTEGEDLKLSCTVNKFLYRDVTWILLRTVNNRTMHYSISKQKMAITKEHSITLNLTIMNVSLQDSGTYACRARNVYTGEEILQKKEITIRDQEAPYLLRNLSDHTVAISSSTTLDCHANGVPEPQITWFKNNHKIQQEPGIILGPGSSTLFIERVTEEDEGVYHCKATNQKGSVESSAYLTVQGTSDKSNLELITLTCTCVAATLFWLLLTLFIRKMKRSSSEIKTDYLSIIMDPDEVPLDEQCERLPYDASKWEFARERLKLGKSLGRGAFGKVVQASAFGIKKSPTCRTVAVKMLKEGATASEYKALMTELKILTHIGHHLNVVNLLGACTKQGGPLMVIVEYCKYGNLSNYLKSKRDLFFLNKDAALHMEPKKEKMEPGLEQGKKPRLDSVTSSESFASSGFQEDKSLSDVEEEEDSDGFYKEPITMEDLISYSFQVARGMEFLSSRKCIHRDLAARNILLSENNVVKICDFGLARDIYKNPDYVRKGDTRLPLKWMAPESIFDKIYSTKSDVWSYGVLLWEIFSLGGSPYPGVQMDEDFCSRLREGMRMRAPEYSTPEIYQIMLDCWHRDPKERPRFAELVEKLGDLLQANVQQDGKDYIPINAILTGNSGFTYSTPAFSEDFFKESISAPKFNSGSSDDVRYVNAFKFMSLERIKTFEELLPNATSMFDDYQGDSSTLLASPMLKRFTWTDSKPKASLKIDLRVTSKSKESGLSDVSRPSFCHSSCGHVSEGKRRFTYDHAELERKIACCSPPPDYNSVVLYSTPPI

COc1ccc(OC)c(Nc2cc(NC(=O)Nc3c(Cl)cccc3Cl)ncn2)c1
inhibition [1]: Active | inhibition [2]: 96.9% | IC50 [3]: 73 nM | inhibition at 10 µM (NCI-H1581 [4]): 93.1% | IC50 (NCI-H520): 3030 nM | IC50 (NCI-H1581 [5]): 2530 nM | Activity (Homo sapiens): Active | inhibition [6]: 85.2% | Cmax [7]: 1270 ng/mL | AUC(0-t) at 24 h [8]: 9690 ng·h/mL | IC50 [9]: 930 nM | viability at 10 µM (NCI-H226 [10]): 71.9% | Activity (NCI-H226 [11]): 11.9% | Activity [12]: 0.9% | Activity [13]: 25.3% | Activity [14]: 1.7% | Activity [15]: 4.5% | inhibition [16]: Active | Activity [17]: Non-Toxic | Activity (Mus musculus): Active | Activity [18]: 5.4% | inhibition [19]: 15.8% | inhibition [20]: 19.4% | inhibition [21]: 8.2% | inhibition [22]: 48.1% | inhibition [23]: 27.6% | inhibition [24]: 9.31% | inhibition [25]: -0.39% | inhibition [26]: 45.8%
